Test results from US20120029187A1, “HALOALKYLSULFONANILIDE DERIVATIVE” (Nissan Chemical Industries, Ltd., priority 2009, published 2012).

Legend:
Type in all cases: in vivo
[1] = test system: barnyardgrass; assay: Test Example 1: herbicidal effects in preemergence treatment under submerged conditions; conditions: dose 2.52 g/a
Procedure, shortened: (§1)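 Submerged conditions, 4 cm water over alluvial soil. Weeds sown and 2.5-leaf rice transplanted; compound applied preemergence to water surface, doses in g per are. Greenhouse, 25 to 30° C., three weeks, then 0–5 mortality rating.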

[2] = test system: bulrush; assay: as above; conditions: dose 2.52 g/a
Procedure, shortened: as §1

[3] = test system: ducksalad; assay: as above; conditions: dose 2.52 g/a
Procedure, shortened: as §1

[4] = test system: transplanted rice; assay: Test Example 1: preemergence treatment under submerged conditions, effect on crop; conditions: dose 2.52 g/a
Procedure, shortened: as §1

[5] = test system: barnyardgrass; assay: Test Example 2: herbicidal effects during the vegetation period under submerged conditions; conditions: treatment during the vegetation period under submerged conditions; dose 2.52 g/a
Procedure, shortened: (§2)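 Barnyardgrass, bulrush and ducksalad were co-sown in alluvial soil flooded to 4 cm and grown in a greenhouse at 25 to 30° C. At the 1- or 2-leaf stage, water-diluted emulsifiable concentrates went onto the water surface at set doses (g/a). Herbicidal effect was scored three weeks later on a graded scale.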

[6] = test system: bulrush; assay: as above; conditions: treatment during the vegetation period under submerged conditions; dose 2.52 g/a
Procedure, shortened: as §2

[7] = test system: ducksalad; assay: as above; conditions: treatment during the vegetation period under submerged conditions; dose 2.52 g/a
Procedure, shortened: as §2

[8] = test system: Italian ryegrass; assay: Test Example 3: herbicidal effects in soil treatment
Procedure, shortened: (§3)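 Seeds were sown in sterilized diluvial soil and covered with about 1.5 cm of soil. Compounds, formulated as emulsifiable concentrates and diluted with water, were sprayed evenly over the soil surface at set doses in g/a. Herbicidal effect was scored on a rating scale three weeks later.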

[9] = test system: barnyardgrass; assay: as above
Procedure, shortened: as §3

[10] = test system: common chickweed; assay: as above
Procedure, shortened: as §3

[11] = test system: common lambsquater; assay: as above
Procedure, shortened: as §3

[12] = test system: common ragweed; assay: as above
Procedure, shortened: as §3

[13] = test system: giant foxtail; assay: as above
Procedure, shortened: as §3

[14] = test system: large crabgrass; assay: as above
Procedure, shortened: as §3

[15] = test system: posumbu knotweed; assay: as above
Procedure, shortened: as §3

[16] = test system: redroot pigweed; assay: as above
Procedure, shortened: as §3

[17] = test system: velvetleaf; assay: as above
Procedure, shortened: as §3

[18] = test system: water foxtail; assay: as above
Procedure, shortened: as §3

[19] = test system: wild oat; assay: as above
Procedure, shortened: as §3

[20] = test system: Italian ryegrass; assay: Test Example 4: herbicidal effect in foliage treatment; conditions: three weeks after application
Procedure, shortened: (§4)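 Seeds were spot-sown in boxes of sterilized diluvial soil and raised in a greenhouse (25 to 30° C) for 14 days before a single foliar application. Compounds were applied as emulsifiable concentrates diluted with water, at predetermined doses in g/a. Injury was graded three weeks post-spray.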

[21] = test system: barnyardgrass; assay: as above; conditions: three weeks after application
Procedure, shortened: as §4

[22] = test system: beadstraw; assay: as above; conditions: three weeks after application
Procedure, shortened: as §4

[23] = test system: common chickweed; assay: as above; conditions: three weeks after application
Procedure, shortened: as §4

[24] = test system: common lambsquater; assay: as above; conditions: three weeks after application
Procedure, shortened: as §4

[25] = test system: common ragweed; assay: as above; conditions: three weeks after application
Procedure, shortened: as §4

[26] = test system: giant foxtail; assay: as above; conditions: three weeks after application
Procedure, shortened: as §4

[27] = test system: large crabgrass; assay: as above; conditions: three weeks after application
Procedure, shortened: as §4

[28] = test system: posumbu knotweed; assay: as above; conditions: three weeks after application
Procedure, shortened: as §4

[29] = test system: redroot pigweed; assay: as above; conditions: three weeks after application
Procedure, shortened: as §4

[30] = test system: velvetleaf; assay: as above; conditions: three weeks after application
Procedure, shortened: as §4

[31] = test system: water foxtail; assay: as above; conditions: three weeks after application
Procedure, shortened: as §4

[32] = test system: wild oat; assay: as above; conditions: three weeks after application
Procedure, shortened: as §4

## CC1COCC(=O)N1Cc1ccccc1NS(=O)(=O)C(F)(F)F (stereo not shown) [Compound I-13]
[1]
  A: barnyardgrass, herbicidal effect (evaluation scale 0-5): 5 (mortality of 90% or above (nearly complete death))
[2]
  B: bulrush, herbicidal effect (evaluation scale 0-5): 5 (mortality of 90% or above (nearly complete death))
[3]
  C: ducksalad, herbicidal effect (evaluation scale 0-5): 5 (mortality of 90% or above (nearly complete death))
[4]
  a: transplanted rice, effect on crop (evaluation scale 0-5): 1 (mortality of at least 5% and less than 20%)
[5]
  A: barnyardgrass, herbicidal effect (evaluation scale 0-5): 5 (mortality of 90% or above (nearly complete death))
[6]
  B: bulrush, herbicidal effect (evaluation scale 0-5): 5 (mortality of 90% or above (nearly complete death))
[7]
  C: ducksalad, herbicidal effect (evaluation scale 0-5): 5 (mortality of 90% or above (nearly complete death))
[8]; dose 3.2 g/a
  H: Italian ryegrass, herbicidal effect (evaluation scale 0-5): 5 (mortality of 90% or above (nearly complete death))
[9]; dose 3.2 g/a
  A: barnyardgrass, herbicidal effect (evaluation scale 0-5): 5 (mortality of 90% or above (nearly complete death))
[10]; dose 3.2 g/a
  N: common chickweed, herbicidal effect (evaluation scale 0-5): 5 (mortality of 90% or above (nearly complete death))
[11]; dose 3.2 g/a
  L: common lambsquater, herbicidal effect (evaluation scale 0-5): 5 (mortality of 90% or above (nearly complete death))
[12]; dose 3.2 g/a
  J: common ragweed, herbicidal effect (evaluation scale 0-5): 5 (mortality of 90% or above (nearly complete death))
[13]; dose 3.2 g/a
  E: giant foxtail, herbicidal effect (evaluation scale 0-5): 5 (mortality of 90% or above (nearly complete death))
[14]; dose 3.2 g/a
  D: large crabgrass, herbicidal effect (evaluation scale 0-5): 5 (mortality of 90% or above (nearly complete death))
[15]; dose 3.2 g/a
  M: posumbu knotweed, herbicidal effect (evaluation scale 0-5): 5 (mortality of 90% or above (nearly complete death))
[16]; dose 3.2 g/a
  K: redroot pigweed, herbicidal effect (evaluation scale 0-5): 5 (mortality of 90% or above (nearly complete death))
[17]; dose 3.2 g/a
  I: velvetleaf, herbicidal effect (evaluation scale 0-5): 5 (mortality of 90% or above (nearly complete death))
[18]; dose 3.2 g/a
  G: water foxtail, herbicidal effect (evaluation scale 0-5): 5 (mortality of 90% or above (nearly complete death))
[19]; dose 3.2 g/a
  F: wild oat, herbicidal effect (evaluation scale 0-5): 3 (mortality of at least 40% and less than 70%)
[20]; dose 3.2 g/a
  H: Italian ryegrass, herbicidal effect: 5 (mortality of 90% or above (nearly complete death))
[21]; dose 3.2 g/a
  A: barnyardgrass, herbicidal effect: 5 (mortality of 90% or above (nearly complete death))
[22]; dose 3.2 g/a
  O: beadstraw, herbicidal effect: 4 (mortality of at least 70% and less than 90%)
[23]; dose 3.2 g/a
  N: common chickweed, herbicidal effect: 4 (mortality of at least 70% and less than 90%)
[24]; dose 3.2 g/a
  L: common lambsquater, herbicidal effect: 3 (mortality of at least 40% and less than 70%)
[25]; dose 3.2 g/a
  J: common ragweed, herbicidal effect: 4 (mortality of at least 70% and less than 90%)
[26]; dose 3.2 g/a
  E: giant foxtail, herbicidal effect: 4 (mortality of at least 70% and less than 90%)
[27]; dose 3.2 g/a
  D: large crabgrass, herbicidal effect: 5 (mortality of 90% or above (nearly complete death))
[28]; dose 3.2 g/a
  M: posumbu knotweed, herbicidal effect: 3 (mortality of at least 40% and less than 70%)
[29]; dose 3.2 g/a
  K: redroot pigweed, herbicidal effect: 3 (mortality of at least 40% and less than 70%)
[30]; dose 3.2 g/a
  I: velvetleaf, herbicidal effect: 5 (mortality of 90% or above (nearly complete death))
[31]; dose 3.2 g/a
  G: water foxtail, herbicidal effect: 5 (mortality of 90% or above (nearly complete death))
[32]; dose 3.2 g/a
  F: wild oat, herbicidal effect: 0 (mortality of less than 5% (almost ineffective))

## CCOC(=O)N(c1ccccc1CN1CCS(=O)(=O)CC1=O)S(=O)(=O)C(F)(F)F [Compound I-19, 4-[2-(N-ethoxycarbonyl-N-trifluoromethanesulfonyl)aminobenzyl]-1,4-thiazinan-1,1-dioxide-3-one]
[1]
  A: barnyardgrass, herbicidal effect (evaluation scale 0-5): 5 (mortality of 90% or above (nearly complete death))
[2]
  B: bulrush, herbicidal effect (evaluation scale 0-5): 5 (mortality of 90% or above (nearly complete death))
[3]
  C: ducksalad, herbicidal effect (evaluation scale 0-5): 5 (mortality of 90% or above (nearly complete death))
[4]
  a: transplanted rice, effect on crop (evaluation scale 0-5): 0 (mortality of less than 5% (almost ineffective))
[5]
  A: barnyardgrass, herbicidal effect (evaluation scale 0-5): 3 (mortality of at least 40% and less than 70%)
[6]
  B: bulrush, herbicidal effect (evaluation scale 0-5): 5 (mortality of 90% or above (nearly complete death))
[7]
  C: ducksalad, herbicidal effect (evaluation scale 0-5): 4 (mortality of at least 70% and less than 90%)
[8]; dose 6.3 g/a
  H: Italian ryegrass, herbicidal effect (evaluation scale 0-5): 2 (mortality of at least 20% and less than 40%)
[9]; dose 6.3 g/a
  A: barnyardgrass, herbicidal effect (evaluation scale 0-5): 4 (mortality of at least 70% and less than 90%)
[10]; dose 6.3 g/a
  N: common chickweed, herbicidal effect (evaluation scale 0-5): 5 (mortality of 90% or above (nearly complete death))
[11]; dose 6.3 g/a
  L: common lambsquater, herbicidal effect (evaluation scale 0-5): 5 (mortality of 90% or above (nearly complete death))
[12]; dose 6.3 g/a
  J: common ragweed, herbicidal effect (evaluation scale 0-5): 4 (mortality of at least 70% and less than 90%)
[13]; dose 6.3 g/a
  E: giant foxtail, herbicidal effect (evaluation scale 0-5): 4 (mortality of at least 70% and less than 90%)
[14]; dose 6.3 g/a
  D: large crabgrass, herbicidal effect (evaluation scale 0-5): 4 (mortality of at least 70% and less than 90%)
[15]; dose 6.3 g/a
  M: posumbu knotweed, herbicidal effect (evaluation scale 0-5): 4 (mortality of at least 70% and less than 90%)
[16]; dose 6.3 g/a
  K: redroot pigweed, herbicidal effect (evaluation scale 0-5): 4 (mortality of at least 70% and less than 90%)
[17]; dose 6.3 g/a
  I: velvetleaf, herbicidal effect (evaluation scale 0-5): 2 (mortality of at least 20% and less than 40%)
[18]; dose 6.3 g/a
  G: water foxtail, herbicidal effect (evaluation scale 0-5): 5 (mortality of 90% or above (nearly complete death))
[19]; dose 6.3 g/a
  F: wild oat, herbicidal effect (evaluation scale 0-5): 0 (mortality of less than 5% (almost ineffective))
[20]; dose 6.3 g/a
  H: Italian ryegrass, herbicidal effect: 3 (mortality of at least 40% and less than 70%)
[21]; dose 6.3 g/a
  A: barnyardgrass, herbicidal effect: 4 (mortality of at least 70% and less than 90%)
[22]; dose 6.3 g/a
  O: beadstraw, herbicidal effect: 4 (mortality of at least 70% and less than 90%)
[23]; dose 6.3 g/a
  N: common chickweed, herbicidal effect: 4 (mortality of at least 70% and less than 90%)
[24]; dose 6.3 g/a
  L: common lambsquater, herbicidal effect: 4 (mortality of at least 70% and less than 90%)
[25]; dose 6.3 g/a
  J: common ragweed, herbicidal effect: 4 (mortality of at least 70% and less than 90%)
[26]; dose 6.3 g/a
  E: giant foxtail, herbicidal effect: 4 (mortality of at least 70% and less than 90%)
[27]; dose 6.3 g/a
  D: large crabgrass, herbicidal effect: 4 (mortality of at least 70% and less than 90%)
[28]; dose 6.3 g/a
  M: posumbu knotweed, herbicidal effect: 3 (mortality of at least 40% and less than 70%)
[29]; dose 6.3 g/a
  K: redroot pigweed, herbicidal effect: 4 (mortality of at least 70% and less than 90%)
[30]; dose 6.3 g/a
  I: velvetleaf, herbicidal effect: 3 (mortality of at least 40% and less than 70%)
[31]; dose 6.3 g/a
  G: water foxtail, herbicidal effect: 5 (mortality of 90% or above (nearly complete death))
[32]; dose 6.3 g/a
  F: wild oat, herbicidal effect: 0 (mortality of less than 5% (almost ineffective))
